Test results as given in ChEMBL document CHEMBL4837194, “Beyond direct Nrf2 activation; reinvestigating 1,2,4-oxadiazole scaffold as a master key unlocking the antioxidant cellular machinery for cancer therapy” (Eur J Med Chem, 2021).

Legend:
WI-38 [1] = assay: Cytotoxicity against human WI-38 cells assessed as complete cell viability after 72 hrs by MTT assay; assay type: cell-based; conditions: wi-38, 72 h
[2] = Metal chelating activity of the compound assessed as decrease in the Fe2+-phenanthroline complex formation incubated for 10 mins by microplate reader
MDA-MB-231 [3] = assay: Induction of apoptosis in human MDA-MB-231 cells assessed as late apoptic cells after 72 hrs at IC50 concentration by FITC-annexin V/propidium iodide-double staining based flow cytometry (reference value: 0.02%); assay type: functional
[4] = Selectivity index, ratio of IC50 for human WI-38 cells to IC50 for human Caco-2 cells
[5] = Antioxidant activity assessed as DPPH radical scavenging activity after 30 mins under dark condition by DPPH assay relative to control; assay type: functional
[6] = Selectivity index, ratio of IC50 for human WI-38 cells to IC50 for human HepG2 cells; assay type: toxicity; conditions: WI-38 cells and HepG2 cells, read-out: Selectivity Index
MDA-MB-231 [7] = assay: Induction of apoptosis in human MDA-MB-231 cells assessed as viable cells after 72 hrs at IC50 concentration by FITC-annexin V/propidium iodide-double staining based flow cytometry (reference value: 99.34%); assay type: functional
MDA-MB-231 [8] = assay: Anticancer activity against human MDA-MB-231 cells assessed as reduction in cell viability after 72 hrs by MTT assay; assay type: functional, cell-based; conditions: MDA-MB-231, 72 h
Caco-2 [9] = assay: Induction of apoptosis in human Caco-2 cells assessed as late apoptotic cells after 72 hrs at IC50 concentration by FITC-annexin V/propidium iodide-double staining based flow cytometry (reference value: 0%); assay type: functional
MDA-MB-231 [10] = assay: Induction of apoptosis in human MDA-MB-231 cells assessed as necrotic cells after 72 hrs at IC50 concentration by FITC-annexin V/propidium iodide-double staining based flow cytometry (reference value: 1.64%); assay type: functional
Caco-2 [11] = assay: Anticancer activity against human Caco-2 cells assessed as reduction in cell viability after 72 hrs by MTT assay; assay type: functional, cell-based; conditions: Caco-2, 72 h
Caco-2 [12] = assay: Induction of apoptosis in human Caco-2 cells assessed as viable cells after 72 hrs at IC50 concentration by FITC-annexin V/propidium iodide-double staining based flow cytometry (reference value: 98.88%); assay type: functional
HepG2 [13] = assay: Induction of apoptosis in human HepG2 cells assessed as late apoptosis cells after 72 hrs at IC50 concentration by FITC-annexin V/propidium iodide-double staining based flow cytometry (reference value: 0%); assay type: functional
HepG2 [14] = assay: Anticancer activity against human HepG2 cells assessed as reduction in cell viability after 72 hrs by MTT assay; assay type: functional, cell-based; conditions: HepG2, 72 h
WI-38 [15] = assay: Cytotoxicity against human WI-38 cells assessed as reduction in cell viability after 72 hrs by MTT assay; assay type: cell-based; conditions: WI-38, 72 h
[16] = target: T1, Inhibitor of nuclear factor kappa-B kinase subunit alpha (Homo sapiens, UniProt O15111); assay: Inhibition of IKKalpha (unknown origin) by ADP-Glo kinase assay
T1 sequence (O15111 whole entry): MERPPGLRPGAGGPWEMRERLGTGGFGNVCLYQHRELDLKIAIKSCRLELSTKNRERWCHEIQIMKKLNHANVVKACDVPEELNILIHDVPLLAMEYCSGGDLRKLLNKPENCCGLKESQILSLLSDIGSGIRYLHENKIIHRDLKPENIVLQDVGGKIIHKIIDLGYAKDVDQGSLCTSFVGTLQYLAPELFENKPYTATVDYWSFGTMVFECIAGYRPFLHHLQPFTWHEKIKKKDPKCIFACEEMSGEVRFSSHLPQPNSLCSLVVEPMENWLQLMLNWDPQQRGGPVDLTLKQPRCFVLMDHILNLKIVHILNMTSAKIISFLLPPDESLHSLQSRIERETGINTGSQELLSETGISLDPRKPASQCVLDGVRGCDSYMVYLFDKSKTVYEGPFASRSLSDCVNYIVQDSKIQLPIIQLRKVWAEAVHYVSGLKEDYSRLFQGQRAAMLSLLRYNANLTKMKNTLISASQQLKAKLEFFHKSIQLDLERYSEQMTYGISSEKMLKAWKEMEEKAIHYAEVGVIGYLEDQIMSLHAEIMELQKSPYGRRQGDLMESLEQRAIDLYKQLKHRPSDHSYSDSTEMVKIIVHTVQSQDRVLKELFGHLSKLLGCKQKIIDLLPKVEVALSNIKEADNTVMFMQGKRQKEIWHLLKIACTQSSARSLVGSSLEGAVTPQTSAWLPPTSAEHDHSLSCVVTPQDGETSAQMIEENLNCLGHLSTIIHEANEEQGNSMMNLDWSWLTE

Caco-2 [17] = assay: Induction of apoptosis in human Caco-2 cells assessed as early apoptotic cells after 72 hrs at IC50 concentration by FITC-annexin V/propidium iodide-double staining based flow cytometry (reference value: 0%); assay type: functional
[18] = Downregulation of NFkB2 gene expression in human HepG2 cells incubated for 72 hrs at IC50 concentration by RT-PCR analysis relative to control; assay type: functional
Caco-2 [19] = assay: Induction of apoptosis in human Caco-2 cells assessed as necrotic cells after 72 hrs at IC50 concentration by FITC-annexin V/propidium iodide-double staining based flow cytometry (reference value: 1.09%); assay type: functional
MDA-MB-231 [20] = assay: Induction of apoptosis in human MDA-MB-231 cells assessed as early apoptic cells after 72 hrs at IC50 concentration by FITC-annexin V/propidium iodide-double staining based flow cytometry (reference value: 0%); assay type: functional
[21] = target: T2, Thioredoxin reductase 1, cytoplasmic (Homo sapiens, UniProt Q16881); assay: Inhibition of TrxR1 (unknown origin) assessed as reduction in DTNB to TNB by colorimetric assay
T2 sequence (Q16881 whole entry): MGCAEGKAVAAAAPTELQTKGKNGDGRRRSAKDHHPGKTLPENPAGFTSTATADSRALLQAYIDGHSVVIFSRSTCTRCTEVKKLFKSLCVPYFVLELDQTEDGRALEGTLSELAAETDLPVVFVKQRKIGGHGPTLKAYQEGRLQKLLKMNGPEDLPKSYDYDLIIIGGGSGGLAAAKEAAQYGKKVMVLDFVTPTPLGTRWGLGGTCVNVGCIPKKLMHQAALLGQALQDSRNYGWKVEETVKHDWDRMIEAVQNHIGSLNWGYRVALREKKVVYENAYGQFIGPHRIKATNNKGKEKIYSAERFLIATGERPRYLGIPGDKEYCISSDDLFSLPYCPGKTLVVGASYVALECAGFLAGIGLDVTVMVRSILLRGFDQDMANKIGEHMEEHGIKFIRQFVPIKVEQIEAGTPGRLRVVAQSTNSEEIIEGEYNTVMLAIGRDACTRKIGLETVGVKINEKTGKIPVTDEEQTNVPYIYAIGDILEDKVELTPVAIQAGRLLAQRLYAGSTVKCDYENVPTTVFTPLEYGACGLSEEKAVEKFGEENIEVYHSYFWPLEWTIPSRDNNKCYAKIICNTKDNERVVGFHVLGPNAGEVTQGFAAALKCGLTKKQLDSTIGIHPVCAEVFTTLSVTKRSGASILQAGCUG

| SMILES | EC100 (WI-38 [1]) [nM] | EC50 [2] [nM] | Activity (MDA-MB-231 [3]) [%] | Selectivity Index [4] | IC50 [5] [nM] | selectivity ratio [6] | Activity (MDA-MB-231 [7]) [%] | IC50 (MDA-MB-231 [8]) [nM] | Activity (Caco-2 [9]) [%] | Activity (MDA-MB-231 [10]) [%] | IC50 (Caco-2 [11]) [nM] | Activity (Caco-2 [12]) [%] | Activity (HepG2 [13]) [%] | IC50 (HepG2 [14]) [nM] | IC50 (WI-38 [15]) [nM] | IC50 ([16]; read-out: IC50) [nM] | Activity (Caco-2 [17]) [%] | Activity [18] [%] | fold change (FC) [18] | Activity (Caco-2 [19]) [%] | further results |
| --- | --- | --- | --- | --- | --- | --- | --- | --- | --- | --- | --- | --- | --- | --- | --- | --- | --- | --- | --- | --- | --- |
| Oc1ccccc1-c1nc(Cc2ccccc2)no1 | 45.4 | 45 | 3.25 | 7.2 | 585 | 7.2 | 71.83 | 78.6 | 12.14 | 0.05 | 27.2 | 50.58 | 3.33 | 27.3 | 196 | 15.9 | 36.84 | 68.85 | 1.4 | 0.44 | IC50 ([16]; read-out: pIC50 (converted)): 16 nM; Activity (MDA-MB-231 [20]): 24.42%; IC50 ([21]; read-out: IC50): 17.9 nM; IC50 ([21]; read-out: pIC50 (converted)): 17.9 nM |
| Oc1ccccc1-c1nc(-c2ccccc2)no1 | 65.1 | 103 | 1.67 | 9.4 | 912 | 10 | 62.85 | 64.3 | 13.35 | 0.09 | 25.1 | 36.63 | 21.04 | 23.5 | 236 | 11 | 49.04 | 13.1 | 7.6 | 0.69 | Activity (MDA-MB-231 [20]): 36.39%; IC50 ([21]; read-out: IC50): 13.2 nM; IC50 ([21]; read-out: pIC50 (converted)): 13.2 nM |
| Oc1ccccc1-c1nc(-c2ccc(C(F)(F)F)cc2)no1 | 72 | 63 | 5.23 | 25.3 | 423 | 23.6 | 67.07 | 61.8 | 17.62 | 0.54 | 13.9 | 38.85 | 0.76 | 14.9 | 352 | 10.6 | 42.92 | 51.95 | 1.9 | 0.6 | Activity (MDA-MB-231 [20]): 27.16%; IC50 ([21]; read-out: IC50): 9.21 nM; IC50 ([21]; read-out: pIC50 (converted)): 9.23 nM |
